Legend:
[1] = cited from earlier work
[2] = λmax UV absorbance of free and encapsulated UV filter; format: physicochemical; conditions: free UV filter in ethanol
Procedure: λmax UV absorbance of free Uvinul A plus in ethanol was measured at 357 nm and λmax UV absorbance of Uvinul A plus encapsulated PLA-PEG-Mal particles in water was measured at 360 nm.

Compound | UV filter logP [1] | λmax UV absorbance of free UV filter [2]
CCCCC(CC)COc1ccc(-c2nc(-c3ccc(OC)cc3)nc(-c3ccc(OCC(CC)CCCC)cc3O)n2)c(O)c1 (centres unmarked) [Bemotrizinol, bis-ethylhexyloxyphenol methoxyphenyl triazine] | 10.4 | –
CC1CCC(C(C)C)C(OC(=O)c2ccccc2N)C1 (centres unmarked) [Meradimate] | 5.1 | –
COc1cc(O)c(C(=O)c2ccccc2)cc1S(=O)(=O)O [Sulisobenzone] | 2.2 | –
CCCCCCOC(=O)c1ccccc1C(=O)c1ccc(N(CC)CC)cc1O [Uvinul A Plus, diethylamino hydroxybenzoyl hexyl benzoate] | 6.5 | 357 nm
CCCCC(CC)COC(=O)C(C#N)=C(c1ccccc1)c1ccccc1 (centres unmarked) [Octocrylene] | 7.1 | 304 nm
CCCCC(CC)COC(=O)c1ccccc1O (centres unmarked) [Octisalate] | 5.7 | –
